# Laboratory results: patent publication US8906925B2, “Pyrido[4,3-B]indoles containing rigid moieties” (Medivation Technologies, Inc., priority 2008, dated 2014)
# Where two headings read alike, the source gives them in different places.
# Columns and labels:
# [1] = molecular target: human dopamine D2L receptor (Homo sapiens, UniProt P14416); assay: Aequorin functional assay, dopamine D2L (CHO-K1); format: cell-based; design: host or cells: CHO-K1 co-expressing mitochondrial apoaequorin and Gα16; settings: for inhibition at 0.005 µM / inhibition at […] / inhibition at 0.05 µM / inhibition at 0.5 µM / inhibition at 5 µM / inhibition at 15 µM: CHO-K1; for inhibition at 0.005 µM: Antagonist concentration 5 nM; for inhibition at 0.05 µM: Antagonist concentration 50 nM; for inhibition at 0.5 µM: Antagonist concentration 500 nM; for inhibition at 5 µM: Antagonist concentration 5000 nM; for inhibition at 15 µM: Antagonist concentration 15000 nM
# Source text: (§1) To study the functional activity of compounds of the invention on the human recombinant dopamine D2L with Aequorin, GTPγS and cAMP functional assays and on the human recombinant serotonin 5-HT2A receptor with Aequorin, CHO-K1 cell lines expressing D2L or 5-HT2A recombinant receptor, mitochondrial apoaequorin and Gα16 were used for the Aequorin assay. CHO-K1 cell line expressing the recombinant D2L receptor was used for the cAMP assay and was amplified to prepare membranes used for the GTPγS assay.
# (§2) Cells were incubated at room temperature for at least 4 h with Coelenterazine h (Molecular Probes). Dose response curves with reference compounds were performed before testing the compounds of the invention. D2L reference agonist and antagonist were quinpirol (Tocris, 1061) and haloperidol (Tocris, 0931), respectively. […] For agonist testing, 50 μL of cell suspension were injected on 50 μL of test compound or reference agonist plated in a 96-well plate. The resulting emission of light was recorded using the Hamamatsu Functional Drug Screening System 6000 (FDSS 6000). Following an incubation of 15 min after the first injection, 100 μL of reference agonist at a concentration corresponding to its EC80 was injected on the 100 μL of the mixture of cell suspension and test compound, for antagonist testing. The resulting emission of light was recorded using the same luminometer as for agonist testing. To standardize the emission of recorded light (determination of the “100% signal”) across plates and across different experiments, some of the wells contained 100 μM digitonin or a saturating concentration of ATP (20 μM). Plates also contained the reference agonist at a concentration equivalent to the EC100 and EC80 obtained during the test validation.
# [2] = molecular target: human recombinant serotonin 5-HT2A receptor (Homo sapiens, UniProt P28223); assay: Aequorin functional assay, serotonin 5-HT2A (CHO-K1); format: cell-based; design: host or cells: CHO-K1 cells co-expressing mitochondrial apoaequorin and Gα16
# Source text: as §1, §2
# Sprague Dawley rats [3] = test system: Sprague Dawley rats
# Method: The two-trial object recognition paradigm developed by Ennaceur and Delacour in the rat was used as a model of episodic short term memory.
# The experiments were carried out using 174-186 male Sprague Dawley rats (Centre d'Elevage R. Janvier, B. P. 55, 53940 Le Genest-Saint-Isle, F.). 143-146 rats met inclusion criteria described in the experimental procedure. In addition, 24 satellite animals were used for pharmacokinetic analysis. The rats (main study and pharmacokinetic study) weighed between 233 and 283 g (6-7 weeks old) at the beginning of the experiments. […] Rats were allowed to acclimate to environmental conditions for at least 5 days prior to experimentation. Rats were numbered by marking their tail with indelible markers.
# Each solution was prepared fresh each day of dosing. […] No corrective factor is required. […] PEG200 was dissolved in water for injection. The volume of administration was 10 mL/kg body weight for the oral route of administration and 5 mL/kg body weight for intraperitoneal route of administration. Each solution was prepared fresh each day of dosing.
# The experimental arena is a square wooden box (60×60×40 cm) painted dark blue, with 15×15 cm black painted squares under a clear plexiglass floor. The arena and the objects were cleaned using water between each trial in order to avoid odour trails left by rats. The arena was placed in a dark room illuminated only by halogen lamps oriented towards the ceiling and giving an uniform dim light in the box (around 60 lux). Animals to be tested were placed in the experimental room at least 30 min before testing.
# Rats were submitted to two trials spaced by an intertrial interval of 24 h. During the first trial (acquisition trial, T1), rats were placed in the arena containing 2 identical objects and time required by each animal to complete 15 sec. of object exploration was determined with a cut-off time of 4 min. Exploration was considered to be directing the nose at a distance less than 2 cm from the object and/or touching the object. For the second trial (testing trial, T2), one of the objects presented in the first trial was replaced by an unknown object (novel object), rats were placed back in the arena for 3 min and exploration of each object was determined. For both T1 and T2, locomotor activity of rats was scored.
# Using group numbers of 18, rats were randomized to constitute the following groups: 1) Vehicle (5% PEG200 in water) p.o.; 2) Compound No. 88 or 90 (0.03 mg/kg) p.o.; 3.
# The following parameters were measured: 1) Time required to achieve 15 sec. of object exploration on T1 (sec.); 2) Locomotor activity on T1 (number of crossed lines); 3) Time spent in active exploration of the familiar object on T2 (sec.)=TF; 4) Time spent in active exploration of the novel object on T2 (sec.)=TN; 5) Locomotor activity on T2 (number of crossed lines).
# All parameters were analysed using SAS software (version 8.2). Statistical tests were performed with an alpha level of 0.05.
# Sprague Dawley rats [4] = assay: Subchronic PCP-induced social interaction deficits; format: in vivo, rat
# Source text: Phencyclidine (PCP) administered to humans as well to experimental animals induces full-spectrum of schizophrenia symptoms, including negative symptoms and cognitive deficits. A major symptom of schizophrenia is considered to be social isolation/withdrawal as part of the cluster of negative symptoms. Subchronic treatment with PCP in rats leads to the development of clear signs of social withdrawal as measured by deficits in the interaction time with a cage intruder rat.
# Male Sprague Dawley rats (˜150 g on arrival) from Harlan (Indiana) were used in this study. Upon receipt, rats were group housed in OPTI rats ventilated cages. Rats were housed in groups of 2-3/cage for the remainder of the study. During the period of acclimation, rats were examined on a regular basis, handled, and weighed to assure adequate health and suitability. Rats were maintained on a 12/12 light/dark cycle with the light on at 7:00 a.m. The room temperature was maintained between 20 and 23° C. with a relative humidity maintained between 30% and 70%. Chow and water were provided ad libitum for the duration of the study. Animals were randomly assigned across treatment groups and balanced by age. Animals were not disturbed between test days.
# The following compounds were used. 1) Compound No. 88 or 90 (0.3, 1 and 3 mg/kg; p.o.) was dissolved in 3% Tween and PBS and administered 30 min prior to test; 2) PCP (2 mg/kg; s.c.) was dissolved in saline and administered twice daily for 5 days prior to test day; 3) Clozapine (2.5 mg/kg; i.p.) was dissolved in 5% PEG:5% Tween 80 in saline and administered 30 min. prior to test. All compounds were administered at a dose volume of 1 mL/kg.
# For five days prior to test, rats were injected twice daily with either PCP (2 mg/kg; s.c) or saline (s.c). On day 6 and following a 30 min pretreatment with vehicle, clozapine or Compound No. 90, a pair of rats, unfamiliar to each other, receiving the same treatment were placed in a white plexiglas open field arena (24″×17″×8″) and allowed to interact with each other for 6 min. Social interactions (‘SI’) included: sniffing the other rat; grooming the other rat; climbing over or under or around the other rat; following the other rat; or exploring the ano-genital area of the other rat. Passive contact and aggressive contact were not considered a measure of social interaction. The time the rats spent interacting with each other during the 6 min test was recorded by a trained observer. The social interaction chambers were thoroughly cleaned between the different rats.
# Data were analyzed by analysis of variance (ANOVA) followed by post-hoc analysis (e.g., Fischer, Dunnett) when appropriate. An effect was considered significant if p<0.05.
# [5] = Antagonist concentration 150 nM
# [6] = Antagonist concentration 1500 nM
# [7] = CHO-K1, read-out: 5-HT2A Antagonist % Inhibition (Aequorin)
# [8] = 0.03, 0.1, 0.3, 1 and 3 mg/kg p.o.
# [9] = 0.03, 0.1, 0.3, 1, 3 and 10 mg/kg p.o.
# human dopamine D2L receptor, sequence (P14416 whole entry): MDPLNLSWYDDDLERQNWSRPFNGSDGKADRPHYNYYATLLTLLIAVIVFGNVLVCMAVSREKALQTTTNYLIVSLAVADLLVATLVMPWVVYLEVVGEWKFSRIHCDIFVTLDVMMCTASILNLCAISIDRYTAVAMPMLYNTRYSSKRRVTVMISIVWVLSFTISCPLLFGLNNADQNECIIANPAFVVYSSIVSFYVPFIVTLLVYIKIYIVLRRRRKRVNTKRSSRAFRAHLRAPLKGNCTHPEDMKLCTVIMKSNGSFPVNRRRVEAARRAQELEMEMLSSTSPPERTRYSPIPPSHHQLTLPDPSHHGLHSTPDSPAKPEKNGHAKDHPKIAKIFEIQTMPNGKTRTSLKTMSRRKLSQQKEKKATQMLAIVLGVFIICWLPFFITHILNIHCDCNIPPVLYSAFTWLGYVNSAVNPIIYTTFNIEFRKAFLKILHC
# human recombinant serotonin 5-HT2A receptor, sequence (P28223 whole entry): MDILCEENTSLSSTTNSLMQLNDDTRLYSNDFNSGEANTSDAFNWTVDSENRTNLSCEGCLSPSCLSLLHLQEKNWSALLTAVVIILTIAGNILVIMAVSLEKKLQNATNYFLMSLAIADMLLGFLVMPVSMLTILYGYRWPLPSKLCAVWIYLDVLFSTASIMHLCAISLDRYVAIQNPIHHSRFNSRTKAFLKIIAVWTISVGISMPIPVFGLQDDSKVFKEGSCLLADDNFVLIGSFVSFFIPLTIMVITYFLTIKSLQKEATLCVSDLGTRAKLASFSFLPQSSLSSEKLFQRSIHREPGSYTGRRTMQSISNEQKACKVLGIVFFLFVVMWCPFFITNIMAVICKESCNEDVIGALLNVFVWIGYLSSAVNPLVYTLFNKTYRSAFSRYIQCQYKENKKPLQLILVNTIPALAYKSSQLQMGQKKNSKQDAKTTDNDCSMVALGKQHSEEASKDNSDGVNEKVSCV
Structure (SMILES),D2L Agonist % Activation (Aequorin) ([1]; Agonist concentration 10 nM),D2L Agonist % Activation (Aequorin) ([1]; Agonist concentration 30 nM),D2L Agonist % Activation (Aequorin) ([1]; Agonist concentration 100 nM),D2L Agonist % Activation (Aequorin) ([1]; Agonist concentration 300 nM),D2L Agonist % Activation (Aequorin) ([1]; Agonist concentration 1000 nM),D2L Agonist % Activation (Aequorin) ([1]; Agonist concentration 3000 nM),D2L Agonist % Activation (Aequorin) ([1]; Agonist concentration 10000 nM),D2L Agonist % Activation (Aequorin) ([1]; Agonist concentration 30000 nM),inhibition at 0.005 µM [1],inhibition at […] ([1]; Antagonist concentration 15 nM),inhibition at 0.05 µM [1],"inhibition at […] [1, 5]",inhibition at 0.5 µM [1],"inhibition at […] [1, 6]",inhibition at 5 µM [1],inhibition at 15 µM [1],"memory performance (TN−TF and RI) compared to vehicle, ANOVA + Dunnett's test (Sprague Dawley rats [3]; 1 mg/kg p.o.)",further results
"C/C(=C\n1c2c(c3cc(Cl)ccc31)CN(C)CC2)c1ccncc1 [Compound 90, (E)-8-chloro-2,3,4,5-tetrahydro-2-methyl-5-(2-(pyridin-4-yl)prop-1-enyl)-1H-pyrido[4,3-b]indole]",0.95%,0.25%,−0.23%,−0.24%,−0.48%,−1.20%,−0.78%,−0.92%,95.5%,97.3%,93.5%,96.8%,97.9%,97.2%,97.4%,96.1%,reached the threshold of statistical significance,"5-HT2A Agonist % Activation (Aequorin) ([2]; Agonist concentration 10 nM): 0.62%; 5-HT2A Agonist % Activation (Aequorin) ([2]; Agonist concentration 30 nM): 0.26%; 5-HT2A Agonist % Activation (Aequorin) ([2]; Agonist concentration 100 nM): 0.27%; 5-HT2A Agonist % Activation (Aequorin) ([2]; Agonist concentration 300 nM): 0.18%; 5-HT2A Agonist % Activation (Aequorin) ([2]; Agonist concentration 1000 nM): 0.11%; 5-HT2A Agonist % Activation (Aequorin) ([2]; Agonist concentration 3000 nM): 0.04%; 5-HT2A Agonist % Activation (Aequorin) ([2]; Agonist concentration 10000 nM): 0.02%; 5-HT2A Agonist % Activation (Aequorin) ([2]; Agonist concentration 30000 nM): 0.49%; inhibition at 0.005 µM [2, 7]: 73%; inhibition at 0.05 µM [2, 7]: 98.5%; inhibition at 0.5 µM [2, 7]: 98.4%; inhibition at 5 µM [2, 7]: 98.5%; inhibition at 15 µM [2, 7]: 97.6%; memory performance (TN−TF and RI) compared to vehicle, ANOVA + Dunnett's test (Sprague Dawley rats [3]; 0.1 mg/kg p.o.): reached the threshold of statistical significance; memory performance (TN−TF and RI values) (Sprague Dawley rats [3]; [8]): improved; number of ""good learners"" (Δ≧5 sec.) (Sprague Dawley rats [3]; [8]): confirmed the cognitive enhancing activity; locomotor activity assessed during T1 and T2 (Sprague Dawley rats [3]; rat, in vivo, po, 3 mg/kg): no statistically significant effects; PCP-induced decrease of social interaction (Sprague Dawley rats [4]; 1 mg/kg p.o., 30 min prior to test): fully reversed; sedation in the home cage during pretreatment time (Sprague Dawley rats [4]; 3 mg/kg p.o.): Mild sedation; deficits in social interaction time induced by chronic PCP (Sprague Dawley rats [4]; 0.3 and 3 mg/kg p.o., did not reach control levels (partial reversal)): significantly attenuated"
"C/C(=C\n1c2c(c3cc(C)ccc31)CN(C)CC2)c1ccncc1 [Compound 88, (E)-2,3,4,5-tetrahydro-2,8-dimethyl-5-(2-(pyridin-4-yl)prop-1-enyl)-1H-pyrido[4,3-b]indole]",,,,,,,,,,,,,,,,,reached the threshold of statistical significance,"memory performance (TN−TF and RI) compared to vehicle, ANOVA + Dunnett's test (Sprague Dawley rats [3]; 0.3 mg/kg p.o.): reached the threshold of statistical significance; memory performance (TN−TF and RI values) (Sprague Dawley rats [3]; [9]): improved; number of ""good learners"" (Δ≧5 sec.) (Sprague Dawley rats [3]; [9]): confirmed the cognitive enhancing activity; cognitive enhancing activity (delay of onset of natural forgetting) (Sprague Dawley rats [3]; single oral administration 0.03, 0.1, 0.3, 1, 3 and 10 mg/kg, 30 min before T1): displayed a cognitive enhancing activity; PCP-induced decrease of social interaction time (Sprague Dawley rats [4]; 0.3, 1 and 3 mg/kg p.o., 30 min prior to test): attenuated"
"C/C(=C\n1c2c(c3cc(Cl)ccc31)CN(C)CC2)c1ccc(F)cc1 [Compound 83, (E)-8-chloro-5-(2-(4-fluorophenyl)prop-1-enyl)-2,3,4,5-tetrahydro-2-methyl-1H-pyrido[4,3-b]indole]",2.43%,0.68%,1.26%,0.92%,−0.12%,0.00%,6.32%,84.25%,93.5%,96.4%,96.8%,96.8%,96.8%,96%,96%,92.3%,,"inhibition at 0.005 µM ([2]; CHO-K1, Antagonist concentration 5 nM, read-out: 5-HT2A Antagonist % Inhibition (Aequorin)): 85.4%; inhibition at […] ([2]; CHO-K1, Antagonist concentration 15 nM): 96.6%; inhibition at 0.05 µM ([2]; CHO-K1, Antagonist concentration 50 nM, read-out: 5-HT2A Antagonist % Inhibition (Aequorin)): 98.5%; inhibition at […] ([2]; CHO-K1, Antagonist concentration 150 nM): 98.7%; inhibition at 0.5 µM ([2]; CHO-K1, Antagonist concentration 500 nM, read-out: 5-HT2A Antagonist % Inhibition (Aequorin)): 98.8%; inhibition at […] ([2]; CHO-K1, Antagonist concentration 1500 nM): 98.9%; inhibition at 5 µM ([2]; CHO-K1, Antagonist concentration 5000 nM, read-out: 5-HT2A Antagonist % Inhibition (Aequorin)): 97.8%; inhibition at 15 µM ([2]; CHO-K1, Antagonist concentration 15000 nM, read-out: 5-HT2A Antagonist % Inhibition (Aequorin)): 97%"
